Results as given in patent publication US20040142888A1, “Modulators of RabGGT and methods of use thereof” (priority 2002, published 2004).

Test system: C. elegans germline
Test: Apoptosis in the C. elegans germline (apoptotic corpses per germline arm), after compound and/or RNAi treatment
Assay type: in vivo
Details: for increase in apoptotic corpses / % arms with >2 corpses / Corpses/germline arm, mean / Frequency: germline arms with 0 apoptotic corpses / Frequency: germline arms with 1 apoptotic corpse / Frequency: germline arms with 2 apoptotic corpses / Frequency: germline arms with 3 apoptotic corpses / Frequency: germline arms with 4 apoptotic corpses / Frequency: germline arms with >4 apoptotic corpses: 7B at 1.6 mM
[1] = wild-type worms, 7B 0.3 mM and/or RNAi against RabGGT alpha subunit

For `N#Cc1ccc2c(c1)CN(S(=O)(=O)N1CCCCC1)[C@H](Cc1ccccc1)CN2Cc1cnc[nH]1` [Compound 7B], the “increase in apoptotic corpses” value (APAF-1/ced-4 mutants) was “no increase in corpses was observed”, the “% arms with >2 corpses” value (WT worms) was 100% and the “Corpses/germline arm, mean” value (WT worms) was 6.25. For the same compound, the “Frequency: germline arms with 0 apoptotic corpses” value (WT worms) was 0, the “Frequency: germline arms with 1 apoptotic corpse” value (WT worms) was 0 and the “Frequency: germline arms with 2 apoptotic corpses” value (WT worms) was 0. The “Frequency: germline arms with 3 apoptotic corpses” value (WT worms) was 1, the “Frequency: germline arms with 4 apoptotic corpses” value (WT worms) was 0 and the “Frequency: germline arms with >4 apoptotic corpses” value (WT worms) was 10. The “increase in apoptotic corpses” value (caspase/ced-3 mutants) was “no increase in corpses was observed”, the “% arms with >2 corpses” value (ced3 mutant worms) was 0% and the “Corpses/germline arm, mean” value (ced3 mutant worms) was 0.08. The “Frequency: germline arms with 0 apoptotic corpses” value (ced3 mutant worms) was 12, the “Frequency: germline arms with 1 apoptotic corpse” value (ced3 mutant worms) was 1 and the “Frequency: germline arms with 2 apoptotic corpses” value (ced3 mutant worms) was 0. The “Frequency: germline arms with 3 apoptotic corpses” value (ced3 mutant worms) was 0, the “Frequency: germline arms with 4 apoptotic corpses” value (ced3 mutant worms) was 0 and the “Frequency: germline arms with >4 apoptotic corpses” value (ced3 mutant worms) was 0. For the same compound, the “% arms with >2 corpses” value (ced4 mutant worms) was 0%, the “Corpses/germline arm, mean” value (ced4 mutant worms) was 0.15 and the “Frequency: germline arms with 0 apoptotic corpses” value (ced4 mutant worms) was 11. For the same compound, the “Frequency: germline arms with 1 apoptotic corpse” value (ced4 mutant worms) was 2, the “Frequency: germline arms with 2 apoptotic corpses” value (ced4 mutant worms) was 0 and the “Frequency: germline arms with 3 apoptotic corpses” value (ced4 mutant worms) was 0. For the same compound, the “Frequency: germline arms with 4 apoptotic corpses” value (ced4 mutant worms) was 0, the “Frequency: germline arms with >4 apoptotic corpses” value (ced4 mutant worms) was 0 and the “observed number of apoptotic corpses per germline arm” value (wild-type adult worms, compound at 0.8 mM or higher) was 5-7. The “% arms with 0-2 corpses” value [1] was 50%, the “% arms with 3-4 corpses” value [1] was 33% and the “% arms with >4 corpses” value [1] was 17%. The “Corpses/arm, mean” value [1] was 2.3, the “Frequency: arms with 0 apoptotic corpses” value [1] was 5 and the “Frequency: arms with 1 apoptotic corpse” value [1] was 5. For the same compound, the “Frequency: arms with 2 apoptotic corpses” value [1] was 2, the “Frequency: arms with 3 apoptotic corpses” value [1] was 5 and the “Frequency: arms with 4 apoptotic corpses” value [1] was 3. The “Frequency: arms with >4 apoptotic corpses” value [1] was 4.
